The values that follow come from patent US9180114B2, “Neurodegenerative diseases and methods of modeling” (PRESIDENT AND FELLOWS OF HARVARD COLLEGE, priority 2008, dated 2015).

The subject of one experiment is mice. The conditions noted are these: cited from earlier work; for induction of (cutaneous) vasodilation: agonist alone.
Experiment [1] relates to Hb9::GFP human ES cell-derived motor neurons on SOD1G93A glia. As to the kind of experiment: Survival of human ES cell-derived motor neurons co-cultured with SOD1G93A glia treated with prostaglandin D2 receptor antagonists. The experiment is classed as cell-based. As to conditions: for Hb9::GFP cells remaining (cell death / survival of motor neurons) on SOD1G93A glia: 10 days of treatment.

Experiment [2] deals with Hb9::GFP human ES cell-derived motor neurons. As to the kind of experiment: Survival of Hb9::GFP human ES cell-derived motor neurons co-cultured with non-transgenic (WT) glia treated with candidate factors. The experiment is classed as cell-based. The conditions noted are these: 20 days of treatment. On the procedure:
After 24 hours, the cells had aggregated to form embryoid bodies (EBs), and the media was changed to remove debris by centrifuging the EBs and resuspending in fresh in human ES cell media without bFGF2 or plasmanate in low attachment 6-well plates. EBs were cultured as such for 13 more days, with half of the media changed every two days, and a complete media change every week. After 14 days, the EBs were induced toward a caudal and ventral identity using retinoic acid (1 μM, Sigma) and an agonist of the Shh signaling pathway (1 μM) in N2 media: 1:1 DMEM:F-12+Glutamate (Gibco), 10,000 units Penicillin and 1 mg/mL Streptomicin (Gibco), 1% N2 Supplement (Gibco), 0.2 mM ascorbic acid (Sigma-Aldrich), 0.16% D-(+)-Glucose (Sigma-Aldrich), BDNF (10 ng/ml, R&D Systems), for another 14 days. The EBs were then matured for a final 14 days in N2 media with GNDF (10 ng/mL, R&D Systems). After 42 days of differentiation, the EBs were dissociated. To dissociate the EBs, they were centrifuged at 1000 rpm for 5 min in a 15 ml falcon tube, and then washed once with PBS to eliminate residual media. The EBs were then incubated for 60 minutes at 37° C. in Earle's Balanced Salt Solution with 20 units of papain and 1000 units of Deoxyribonuclease I (Worthington Biochemical Corporation). EBs were triturated using a 2 mL serological pipette every 15-20 minutes during this incubation. When an almost single cell suspension was achieved, the cells were centrifuged for 5 minutes at 1000 RPM. […] These cells were then counted and plated on Poly-D-Lysine/Laminin CultureSlides (BD biosciences) or on a layer of primary glial cells. Depending on the experiment, motor neurons or interneurons were counted 10 or 20 days after plating.
Non-transgenic glia were individually pretreated for 1 day with either one of the three cytokines MCP2, Cxcl7, or Rantes; with GMFb; an agonist of SHH pathway; or with PGD2. […] Replicate cultures were individually maintained for 20 days in the presence of each of the 6 factors, fixed, and the numbers of GFP positive motor neurons quantified. […]

Take `O=C(O)CCCCCCC1C(=O)NC(=O)N1CCC(O)C1CCCCC1` (stereo not shown) [BW245C]: the “induction of (cutaneous) vasodilation” value in the experiment on mice was “induced vasodilation”.

For the molecule `O=C(O)CCCCCCC1C(=O)N(Cc2ccccc2)C(=O)N1NCC(O)C1CCCCC1` (stereo not shown) [BWA868C], the “Hb9::GFP cells remaining (cell death / survival of motor neurons) on SOD1G93A glia” value in experiment [1] was “significantly reduced cell death”; in experiment [1] (listed as BW868C) it was “significantly reduced neuronal cell death”.

Regarding `CCCCCC(=O)CCC1C(=O)CC(O)C1C/C=C\CCCC(=O)O` (stereo not shown) [DK-PGD2, 13,14-dihydro-15-keto-PGD2], the “induction of (cutaneous) vasodilation” value in the experiment on mice is on record as “did not induce cutaneous vasodilation”.

Turning to `CS(=O)(=O)c1cc(F)cc2c3c(n(Cc4ccc(Cl)cc4)c12)[C@@H](CC(=O)O)CC3` [MK 0524], the “blockade of PGD2- and NA-induced vasodilation” value with mice (PGD2 or nicotinic acid (NA) challenge) was “blocked both PGD2- and NA-induced vasodilation”. Besides, in experiment [1], the “increase in the number of GFP positive neurons relative to untreated neurons plated on the same glia” value was 32% and the “neuronal cell death for motor neurons cultured on SOD1G93A glia” value was “significantly reduced neuronal cell death”.

Regarding `CCCCC[C@H](O)/C=C/[C@H]1C(=O)C[C@H](O)[C@@H]1C/C=C\CCCC(=O)O` [PGD2, prostaglandin D2], the “number of motor neurons compared to the control condition” value in experiment [2] (WT glia pretreated 1 day, 10 μM) stood at 19%+/−2%.

B1: Mcp2: cytokine over expressed in mutant glia (protein, UniProt Q9Z121 24-97, looked up)
C-C motif chemokine 8: GPDKAPVTCCFHVLKLKIPLRVLKSYERINNIQCPMEAVVFQTKQGMSLCVDPTQKWVSEYMEILDQKSQILQP
On to B1, for which the “number of GFP positive motor neurons compared to the control condition” value in experiment [2] (non-transgenic (WT) glia pretreated 1 day, 100 ng/ml) is recorded as 103%+/−8%.

B2: GMFb: glial maturation factor beta, induces a pro-inflammatory state in astrocytes (protein, UniProt Q9CQI3 2-142, looked up)
Glia maturation factor beta: SESLVVCDVAEDLVEKLRKFRFRKETHNAAIIMKIDKDERLVVLDEELEGVSPDELKDELPERQPRFIVYSYKYQHDDGRVSYPLCFIFSSPVGCKPEQQMMYAGSKNKLVQTAELTKVFEIRNTEDLTEEWLREKLGFFH
For B2, the “number of human ES cell derived motor neurons compared to the control condition” value in experiment [2] (non-transgenic (WT) glia pretreated 1 day, 250 ng/ml) was 95%+/−9%.
